According to the NIST ThermoML archive (doi:10.1007/s10765-007-0223-x):
± gives the expanded uncertainty stated by the source.

Assay: xn = mol fraction of the nth substance listed
Settings: 101 kPa, Liquid; for speed of sound: Single path-length method

CCc1ccccc1 [ethylbenzene] + COC(C)(C)C
Settings | mass density, 305.65 K [kg/m3] | mass density, 308.15 K [kg/m3] | mass density, 310.65 K [kg/m3] | mass density, 313.15 K [kg/m3] | speed of sound, 308.15 K [m/s] | speed of sound, 310.65 K [m/s] | speed of sound, 313.15 K [m/s] | speed of sound, 315.65 K [m/s]
x2 = 0 | 855.837 ± 0.39 | 853.622 ± 0.39 | 851.407 ± 0.39 | 849.186 ± 0.4 | 1276.8 ± 2.1 | 1266.5 ± 2.1 | 1256.3 ± 2.1 | 1246.1 ± 2.1
x2 = 0.046 | 850.573 ± 0.41 | 848.347 ± 0.41 | 846.119 ± 0.42 | 843.886 ± 0.42 | 1264.9 ± 2.1 | 1254.8 ± 2.1 | 1244.6 ± 2.1 | 1234.5 ± 2.1
x2 = 0.106 | 843.52 ± 0.42 | 841.274 ± 0.43 | 839.024 ± 0.43 | 836.773 ± 0.43 | 1249.5 ± 2.1 | 1239.2 ± 2.1 | 1229 ± 2.1 | 1218.7 ± 2.1
x2 = 0.212 | 831.061 ± 0.44 | 828.779 ± 0.44 | 826.493 ± 0.45 | 824.202 ± 0.45 | 1221.9 ± 2.1 | 1211.5 ± 2.1 | 1201 ± 2.1 | 1190.8 ± 2.1
x2 = 0.299 | 820.447 ± 0.46 | 818.132 ± 0.46 | 815.815 ± 0.46 | 813.486 ± 0.47 | 1198.5 ± 2.1 | 1188.1 ± 2.1 | 1177.5 ± 2.1 | 1166.9 ± 2.1
x2 = 0.402 | 807.578 ± 0.47 | 805.218 ± 0.48 | 802.853 ± 0.48 | 800.48 ± 0.48 | 1169.2 ± 2.1 | 1158.6 ± 2.1 | 1148 ± 2.1 | 1137.5 ± 2.1
x2 = 0.503 | 796.166 ± 0.49 | 793.77 ± 0.5 | 791.367 ± 0.5 | 788.959 ± 0.5 | 1144 ± 2.1 | 1133.2 ± 2.1 | 1122.5 ± 2.1 | –
x2 = 0.6 | 782.111 ± 0.52 | 779.66 ± 0.52 | 777.204 ± 0.52 | 774.736 ± 0.53 | 1112.2 ± 2.1 | 1101.4 ± 2.1 | 1090.5 ± 2.1 | –
x2 = 0.701 | 768.689 ± 0.53 | 766.192 ± 0.54 | 763.689 ± 0.54 | 761.174 ± 0.55 | 1082.7 ± 2.1 | 1071.8 ± 2.1 | 1060.8 ± 2.1 | –
x2 = 0.822 | 752.062 ± 0.56 | 749.497 ± 0.56 | 746.926 ± 0.57 | 744.341 ± 0.57 | 1045.6 ± 2.1 | 1034.6 ± 2.1 | 1023.4 ± 2.1 | –
x2 = 0.899 | 741.065 ± 0.58 | 738.451 ± 0.58 | 735.825 ± 0.58 | 733.188 ± 0.59 | 1021 ± 2.1 | 1009.8 ± 2.1 | 998.53 ± 2.1 | –
x2 = 0.948 | 733.91 ± 0.59 | 731.264 ± 0.59 | 728.607 ± 0.59 | 725.934 ± 0.6 | 1005.2 ± 2.1 | 993.9 ± 2.1 | 982.63 ± 2.1 | –
